Assay results: patent US6211439A, “Herbicide resistance in plants” (MGI Pharma, Inc, priority 1995, dated 2001)
Read-outs that look alike come from different tables or passages of the source.

Legend:
[1] = test system: Callus tissue from line QJ22; assay: Callus growth inhibition, line QJ22; format: cell-based, maize; conditions: line QJ22 vs control tissue; based on herbicide amount giving 50% reduction in growth rate
Description: (§1) Callus tissue from line QJ22 was tested also with the compound 567. The numbers represent the fold increase in herbicide concentration that can be tolerated by each of the cell lines as compared to control tissue. The values were calculated based on the amount of herbicide that gave a 50% reduction in growth rate.

[2] = test system: Callus tissue from line UV18; assay: Callus growth inhibition, line UV18; format: cell-based, maize; conditions: for Callus Growth Fold Increase in Tolerance: line UV18 vs control tissue, based on herbicide amount giving 50% reduction in growth rate
Description: The UV18 cell line was first observed after 25 weeks of selection comprising 9 subculture intervals. The tissue in the selection procedure had been exposed to 0.1 mg per liter 214 for four subculture intervals followed by exposure to 0.3 mg per liter 214 for four subculture intervals. UV18 was identified during the ninth subculture as a rapidly growing sector of tissue with good morphology.
as §1

[3] = test system: Black Mexican Sweet Corn tissue; assay: Free amino acid levels in Black Mexican Sweet Corn suspension cultures; format: cell-based, maize; conditions: for activity at 10 µM / fold induction at 10 µM: Zea mays; for activity at 10 µM: After 48 hours of herbicide exposure; for fold induction at 10 µM: over a period of 48 hours, vs control cultures
Description: (§2) Suspension culture cells were treated for 3.5 hours or 48 hours with 1×10^-5 M 997. Cells were removed from suspension by filtration and 1 gram fresh weight quantities were ground with sand with a mortar and pestle in 1 ml 5% TCA. Four ml of 5% TCA were added and the extract centrifuged at 10,000×g for 10 minutes. The pellet was reextracted and the supernatants combined and subjected to cation exchange chromatography. The samples were applied to Bond Elut SCX columns (Analytichem International Inc., Harbor City, Calif.) which had been equilibrated with 5% TCA. Following sample application, the columns were washed with 5 ml distilled, deionized water, and the amino acids were eluted with 2 ml aliquots of 5% v/v triethylamine. The aliquots were combined (6 ml), lyophilized, and subjected to amino acid analysis with a Kontron Liquemat III amino acid analyzer (Hesber, Middlesex TW5 OQU, England).

[4] = test system: isozymes of AHAS (I, II and III); assay: E. coli AHAS isozymes assayed in vitro; format: biochemical; conditions: millimolar concentrations
Source text: Genes encoding AHAS are common to the aspartate and branched chain amino acid pathways in plants and microorganisms (Umbarger, 1978, Ann. Rev. Biochem, 47: 533-606). AHAS catalyzes the first step in the synthesis of the amino acids leucine, valine and isoleucine. AHAS activity is regulated in vivo by various end products or combination of end products of the biosynthetic pathway. AHAS genes with a variety of regulatory characteristics are available from microorganisms including, but not limited to, Escherichia coli, yeast and Neurospora. These might include AHAS genes which are naturally resistant to the imidazolinone herbicides. […] Resistance of E. coli to AC 243,997 therefore appears to be the result of an insensitive site of action as opposed to being a result of metabolism of the herbicide. Resistance in other organisms is likely to be of the same nature, providing a variety of sources of a gene encoding an herbicide resistant AHAS. The genes encoding all three E. coli isozymes have been cloned and sequenced. Selection for imidazolinone resistant mutant AHAS genes in microorganisms or plants including plant tissue cultures would provide a diverse source of genes which, when transferred to plants, produce herbicide resistant plants.

[5] = test system: Corn Suspension Cultures; assay: Free amino acid levels in suspension cultures of the embryogenic cell line used for selection; format: cell-based, maize; conditions: 1 × 10^-5 M 997
Description: as §2
The embryogenic cell line used in the selection for herbicide resistant cells (see Section 6.2.1) was different from the cell line used in the characterization of the site of action of 997 described in Section 6.1. Consequently, the effects of 997 on pool sizes of free amino acids in the cell line used in the selection procedure was also studied. The protocol described in Section 6.1.4 was followed for these studies.

[6] = 1 × 10^-5 M 997, 3.5 hr., Estimated
[7] = average ± standard deviation of three replicates

CC(C)C1(C)NC(c2nc3ccccc3cc2C(=O)O)=NC1=O (stereo not shown) [compound 214, 2-(5-isopropyl-5-methyl-4-oxo-2-imidazolin-2-yl)3-quinolinecarboxylic acid]
Callus Growth Fold Increase in Tolerance [1]: 5 fold | growth of UV18 tissue in presence of herbicide ([2]; 0.3 mg per liter 214, vs control tissue in the absence of herbicide): grew as rapidly | Callus Growth Fold Increase in Tolerance [2]: 100 fold

CC(C)C1(C)NC(c2ncccc2C(=O)O)=NC1=O (stereo not shown) [compound 997, 2-(5-isopropyl-5-methyl-4-oxo-2-imidazolin-2-yl)nicotinic acid]
Free asp level ([3]; 1 × 10^-5 M 997, 3.5 hr.): 175 nmol per g fresh weight tissue | Free cystine (Oxidized cysteine) level ([3]; 1 × 10^-5 M 997, 3.5 hr.): 103 nmol per g fresh weight tissue | Free glu level ([3]; 1 × 10^-5 M 997, 3.5 hr.): 360 nmol per g fresh weight tissue | Free gly level ([3]; 1 × 10^-5 M 997, 3.5 hr.): 98 nmol per g fresh weight tissue | Free his level ([3]; 1 × 10^-5 M 997, 3.5 hr.): 184 nmol per g fresh weight tissue | Free ile level ([3]; 1 × 10^-5 M 997, 3.5 hr.): 120 nmol per g fresh weight tissue | Free leu level ([3]; 1 × 10^-5 M 997, 3.5 hr.): 120 nmol per g fresh weight tissue | Free lys level ([3]; 1 × 10^-5 M 997, 3.5 hr.): 212 nmol per g fresh weight tissue | Free met level ([3]; 1 × 10^-5 M 997, 3.5 hr.): 100 nmol per g fresh weight tissue | Free phe level ([3]; 1 × 10^-5 M 997, 3.5 hr.): 151 nmol per g fresh weight tissue | Free ser level ([3]; 1 × 10^-5 M 997, 3.5 hr.): 540 nmol per g fresh weight tissue | Free thr level ([3]; 1 × 10^-5 M 997, 3.5 hr.): 89 nmol per g fresh weight tissue | Free tyr level ([3]; 1 × 10^-5 M 997, 3.5 hr.): 112 nmol per g fresh weight tissue | Free val level ([3]; 1 × 10^-5 M 997, 3.5 hr.): 355 nmol per g fresh weight tissue | Free ala level [3, 6]: 600 nmol per g fresh weight tissue | Free arg level [3, 6]: 60 nmol per g fresh weight tissue | Free trp level [3, 6]: 30 nmol per g fresh weight tissue | Free ala level ([3]; 1 × 10^-5 M 997, 48 hr.): 455 nmol per g fresh weight tissue | Free arg level ([3]; 1 × 10^-5 M 997, 48 hr.): 55 nmol per g fresh weight tissue | Free asp level ([3]; 1 × 10^-5 M 997, 48 hr.): 100 nmol per g fresh weight tissue | Free cystine (Oxidized cysteine) level ([3]; 1 × 10^-5 M 997, 48 hr.): 435 nmol per g fresh weight tissue | Free glu level ([3]; 1 × 10^-5 M 997, 48 hr.): 175 nmol per g fresh weight tissue | Free gly level ([3]; 1 × 10^-5 M 997, 48 hr.): 60 nmol per g fresh weight tissue | Free his level ([3]; 1 × 10^-5 M 997, 48 hr.): 310 nmol per g fresh weight tissue | Free ile level ([3]; 1 × 10^-5 M 997, 48 hr.): 38 nmol per g fresh weight tissue | Free leu level ([3]; 1 × 10^-5 M 997, 48 hr.): 16 nmol per g fresh weight tissue | Free lys level ([3]; 1 × 10^-5 M 997, 48 hr.): 240 nmol per g fresh weight tissue | Free met level ([3]; 1 × 10^-5 M 997, 48 hr.): 405 nmol per g fresh weight tissue | Free phe level ([3]; 1 × 10^-5 M 997, 48 hr.): 195 nmol per g fresh weight tissue | Free ser level ([3]; 1 × 10^-5 M 997, 48 hr.): 1160 nmol per g fresh weight tissue | Free trp level ([3]; 1 × 10^-5 M 997, 48 hr.): 30 nmol per g fresh weight tissue | Free tyr level ([3]; 1 × 10^-5 M 997, 48 hr.): 130 nmol per g fresh weight tissue | Free val level ([3]; 1 × 10^-5 M 997, 48 hr.): 48 nmol per g fresh weight tissue | activity at 10 µM ([3]; read-out: free isoleucine level relative to untreated cell cultures): 31% | activity at 10 µM ([3]; read-out: free leucine level relative to untreated cell cultures): 8% | activity at 10 µM ([3]; read-out: free valine level relative to untreated cell cultures): 12% | fold induction at 10 µM ([3]; read-out: increase of free cysteine during herbicide exposure): 24 | fold induction at 10 µM ([3]; read-out: increase of free methionine during herbicide exposure): 8 | fold induction at 10 µM ([3]; read-out: increase of free serine during herbicide exposure): 3 | sensitivity of AHAS isozymes I, II and III [4]: insensitive to millimolar concentrations | ala B/A (treated/control) [5]: 2.6 | arg B/A (treated/control) [5]: 1.4 | asp B/A (treated/control) [5]: 2.2 | glu B/A (treated/control) [5]: 3.8 | gly B/A (treated/control) [5]: 13.0 | ile B/A (treated/control) [5]: 2.4 | leu B/A (treated/control) [5]: 0.52 | lys B/A (treated/control) [5]: 1.8 | met B/A (treated/control) [5]: 3.8 | phe B/A (treated/control) [5]: 6.6 | ser B/A (treated/control) [5]: 8.7 | thr B/A (treated/control) [5]: 6.4 | tyr B/A (treated/control) [5]: 2.1 | val B/A (treated/control) [5]: 0.27 | Free ala level (B) [5, 7]: 5750 ± 1100 n mol per g fresh wt tissue | Free arg level (B) [5, 7]: 70 ± 60 n mol per g fresh wt tissue | Free asp level (B) [5, 7]: 5700 ± 650 n mol per g fresh wt tissue | Free glu level (B) [5, 7]: 8550 ± 210 n mol per g fresh wt tissue | Free gly level (B) [5, 7]: 3130 ± 230 n mol per g fresh wt tissue | Free ile level (B) [5, 7]: 220 ± 10 n mol per g fresh wt tissue | Free leu level (B) [5, 7]: 120 ± 10 n mol per g fresh wt tissue | Free lys level (B) [5, 7]: 230 ± 140 n mol per g fresh wt tissue | Free met level (B) [5, 7]: 190 ± 80 n mol per g fresh wt tissue | Free phe level (B) [5, 7]: 790 ± 90 n mol per g fresh wt tissue | Free ser level (B) [5, 7]: 20000 ± 2000 n mol per g fresh wt tissue | Free thr level (B) [5, 7]: 2960 ± 270 n mol per g fresh wt tissue | Free tyr level (B) [5, 7]: 410 ± 80 n mol per g fresh wt tissue | Free val level (B) [5, 7]: 140 ± 10 n mol per g fresh wt tissue | Callus Growth Fold Increase in Tolerance [1]: 30-50 fold | Callus Growth Fold Increase in Tolerance [2]: 100 fold
